In patent US20240124466A1, “COMPOUNDS AND USE THEREOF FOR TREATMENT OF NEURODEGENERATIVE, DEGENERATIVE AND METABOLIC DISORDERS” (VOVA IDA THERAPEUTICS, INC., priority 2020, published 2024):

What follows are compounds tested on PK1 neuroblastoma cells exposed to TPrP (assay: cells). Conditions: Neuroblastoma cell, 96 h, read-out: TPrP EC50.
`C=CCN1C[C@H](C)N(S(=O)(=O)c2cc(-c3ccnc(Cl)c3)ccc2C)C[C@H]1C` (relative stereo) [SR-35465, (trans)-1-allyl-4-((5-(2-chloropyridin-4-yl)-2-methylphenyl)sulfonyl)-2,5-dimethylpiperazine] was tested, and the EC50 was over 1500 nM. In the case of `Cc1ccc(-c2cnn(C)c2)cc1S(=O)(=O)N1CCOCC1` [SR-24578], the EC50 is reported as 100 nM. In the case of `Cc1ccc(-c2cnn(CCN3CCOCC3)c2)cc1S(=O)(=O)N1CCOCC1` [SR-24581], the EC50 is reported as 100 nM. In the case of `Cc1ccc(-c2ccncc2)cc1S(=O)(=O)N1CCOCC1` [SR-24583], the EC50 is reported as 100 nM. Work on `CC(=O)NCCNc1cc(-c2ccc(C)c(S(=O)(=O)N3CCOCC3)c2)ccn1` [SR-25104, N-(2-((4-(4-methyl-3-(morpholinosulfonyl)phenyl)pyridin-2-yl)amino)ethyl) acetamide] yielded an EC50 of 100 nM. `CC(=O)N(C)CCN(C)c1cc(-c2ccc(C)c(S(=O)(=O)N3CCOCC3)c2)ccn1` [SR-25124, N-methyl-N-(2-(methyl(4-(4-methyl-3-(morpholinosulfonyl)phenyl)pyridin-2-yl)amino)ethyl)acetamide] showed an EC50 of 240 nM. `Cc1ccc(NCc2ccncc2)cc1S(=O)(=O)N1CCOCC1` [SR-25464, 4-Methyl-3-(morpholinosulfonyl)-N-(pyridin-4-ylmethyl)aniline] gave an EC50 of over 320 nM. `CC(=O)N1CCN(CCn2cc(-c3ccc(C)c(S(=O)(=O)N4CCOCC4)c3)cn2)CC1` [SR-25484, 1-(4-(2-(4-(4-Methyl-3-(morpholinosulfonyl)phenyl)-1H-pyrazol-1-yl)ethyl)piperazin-1-yl)ethan-1-one] showed an EC50 of 140 nM. For `Cc1ccc(-c2c(C)nn(C)c2C)cc1S(=O)(=O)N1CCOCC1` [SR-25584, 4-((2-Methyl-5-(1,3,5-trimethyl-1H-pyrazol-4-yl)phenyl)sulfonyl)morpholine], the EC50 was over 320 nM. `Cc1ccc(-c2n[nH]c(-c3ccccc3)n2)cc1S(=O)(=O)N1CCOCC1` [SR-25604-2] gave an EC50 of 40 nM. In the case of `CC(=O)NC1CCN(CCn2cc(-c3ccc(C)c(S(=O)(=O)N4CCOCC4)c3)cn2)CC1` [SR-25864, N-(1-(2-(4-(4-methyl-3-(morpholinosulfonyl)phenyl)-1H-pyrazol-1-yl)ethyl)piperidin-4-yl)acetamide], the EC50 is reported as 120 nM. `O=S(=O)(c1ccc(-c2nnc(-c3ccccc3)[nH]2)cc1Cl)N1CCOCC1` [SR-26324, 4-((2-Chloro-4-(5-phenyl-4H-1,2,4-triazol-3-yl)phenyl)sulfonyl)morpholine] gave an EC50 of over 320 nM. With `Cc1ccc(-c2nnc(C)c3ccccc23)cc1S(=O)(=O)N1CCOCC1` [SR-26424, 4-((2-Methyl-5-(4-methylphthalazin-1-yl)phenyl)sulfonyl)morpholine] the EC50 was over 320 nM. `O=S(=O)(c1ccc(-c2nnc(-c3ccccc3)[nH]2)cc1C(F)(F)F)N1CCOCC1` [SR-26444, 4-((4-(5-Phenyl-4H-1,2,4-triazol-3-yl)-2-(trifluoromethyl)phenyl)sulfonyl) morpholine] was tested, and the EC50 was over 320 nM. `Cc1ccc(-c2nc3ccccn3n2)cc1S(=O)(=O)N1CCOCC1` [SR-26524, 4-((5-([1,2,4]Triazolo[1,5-a]pyridin-2-yl)-2-methylphenyl)sulfonyl) morpholine] gave an EC50 of 50 nM. Work on `O=S(=O)(c1cc(-c2nnc(-c3ccccc3)[nH]2)ccc1Cl)N1CCOCC1` [SR-26525, 4-((2-Chloro-5-(5-phenyl-4H-1,2,4-triazol-3-yl)phenyl)sulfonyl)morpholine] yielded an EC50 of 100 nM. For `COc1ccc(-c2nnc(-c3ccccc3)[nH]2)cc1S(=O)(=O)N1CCOCC1` [SR-26624, 4-((2-Methoxy-5-(5-phenyl-4H-1,2,4-triazol-3-yl)phenyl)sulfonyl) morpholine], the EC50 was 260 nM. `Cc1ccc(-c2cnc3ccccn23)cc1S(=O)(=O)N1CCOCC1` [SR-27444, 4-((5-(Imidazo[1,2-a]pyridin-3-yl)-2-methylphenyl)sulfonyl)morpholine] gave an EC50 of over 320 nM. `Cc1ccc(-c2cccc3[nH]ncc23)cc1S(=O)(=O)N1CCOCC1` [SR-27484, 4-((5-(1H-Indazol-4-yl)-2-methylphenyl)sulfonyl)morpholine] was tested, and the EC50 was over 320 nM. Compound `N#Cc1ccc(-c2nnc(-c3ccccc3)[nH]2)cc1S(=O)(=O)N1CCOCC1` [SR-27504, 2-(Morpholinosulfonyl)-4-(5-phenyl-4H-1,2,4-triazol-3-yl)benzonitrile] has an EC50 of over 320 nM. `Cc1ccc(-c2nnc(-c3ccccc3)s2)cc1S(=O)(=O)N1CCOCC1` [SR-27524, 4-((2-Methyl-5-(5-phenyl-1,3,4-thiadiazol-2-yl)phenyl)sulfonyl)morpholine] gave an EC50 of 180 nM. In the case of `Cc1ccc(-c2nnc(-c3ccccc3)o2)cc1S(=O)(=O)N1CCOCC1` [SR-27558, 4-((2-Methyl-5-(5-phenyl-1,3,4-oxadiazol-2-yl)phenyl)sulfonyl)morpholine], the EC50 is reported as 140 nM. `Cc1ccc(-c2n[nH]c3ccccc23)cc1S(=O)(=O)N1CCOCC1` [SR-27564, 4-((5-(1H-Indazol-3-yl)-2-methylphenyl)sulfonyl)morpholine] was tested, and the EC50 was 135 nM. With `Cc1ccc(-c2nnc(-c3ccc(F)cc3)[nH]2)cc1S(=O)(=O)N1CCOCC1` [SR-27964, 4-((5-(5-(4-Fluorophenyl)-4H-1,2,4-triazol-3-yl)-2-methylphenyl)sulfonyl) morpholine] the EC50 was 40 nM. Compound `Cc1ccc(-c2nnc(-c3ccc(F)c(F)c3)[nH]2)cc1S(=O)(=O)N1CCOCC1` [SR-27984, 4-((5-(5-(3,4-Difluorophenyl)-4H-1,2,4-triazol-3-yl)-2-methylphenyl)sulfonyl) morpholine] has an EC50 of 20 nM. Work on `O=S(=O)(c1cc(-c2nnc(-c3ccccc3)[nH]2)ccn1)N1CCOCC1` [SR-28004, 4-((4-(5-Phenyl-4H-1,2,4-triazol-3-yl)pyridin-2-yl)sulfonyl)morpholine] yielded an EC50 of over 1200 nM. `COc1ccc(-c2nnc(-c3ccc(C)c(S(=O)(=O)N4CCOCC4)c3)[nH]2)cc1` [SR-28104, 4-((5-(5-(4-Methoxyphenyl)-4H-1,2,4-triazol-3-yl)-2-methylphenyl)sulfonyl) morpholine] was tested, and the EC50 was 15 nM. Work on `O=S(=O)(c1cc(-c2nnc(-c3ccccc3)[nH]2)ccc1C(F)(F)F)N1CCOCC1` [SR-28125, 4-((5-(5-Phenyl-4H-1,2,4-triazol-3-yl)-2-(trifluoromethyl)phenyl)sulfonyl) morpholine] yielded an EC50 of 30 nM. For `Cc1ccc(-c2nnc(-c3ccc(Br)cc3)[nH]2)cc1S(=O)(=O)N1CCOCC1` [SR-28144, 4-((5-(5-(4-Bromophenyl)-4H-1,2,4-triazol-3-yl)-2-methylphenyl)sulfonyl) morpholine], the EC50 was 40 nM. In the case of `Cc1ccc(-c2nnc(-c3ccncc3)[nH]2)cc1S(=O)(=O)N1CCOCC1` [SR-28224, 4-((2-Methyl-5-(5-(pyridin-4-yl)-4H-1,2,4-triazol-3-yl)phenyl)sulfonyl) morpholine], the EC50 is reported as 18 nM. `Cc1ccc(-c2nnc(C3CCCCC3)[nH]2)cc1S(=O)(=O)N1CCOCC1` [SR-28565, 4-((5-(5-Cyclohexyl-4H-1,2,4-triazol-3-yl)-2-methylphenyl)sulfonyl)morpholine] showed an EC50 of 150 nM. In the case of `Cc1ccc(-c2cnn(Cc3ccccc3)c2)cc1S(=O)(=O)N1CCOCC1` [SR-28764, 4-((5-(1-Benzyl-1H-pyrazol-4-yl)-2-methylphenyl)sulfonyl)morpholine], the EC50 is reported as 150 nM. In the case of `Cc1ccc(-c2ncc(-c3ccccc3)[nH]2)cc1S(=O)(=O)N1CCOCC1` [SR-28804, 4-((2-Methyl-5-(5-phenyl-1H-imidazol-2-yl)phenyl)sulfonyl)morpholine], the EC50 is reported as 400 nM.
